# From publication PMC3906007, “Discovery of a Small Molecule Agonist of Phosphatidylinositol 3-Kinase p110α That Reactivates Latent HIV-1” (PLoS ONE, 2014)
# Key:
# [1] = test system: latent HIV-1 in J89GFP cells; assay: Latent HIV-1 reactivation in J89GFP cells (EGFP positive cells, flow cytometry); type: cell-based
# Experimental: Three different cell lines of HIV-1 latency were used in this study. These included J89GFP, U1 and ACH-2 cells. The J89GFP cells were a kind gift from Dr. David Levy. The ACH-2 and U1 cells were obtained through the AIDS Research and Reference Reagent Program, Division of AIDS, NIAID, NIH: Dr. Thomas Folks contributor [19]–[21]. Reactivation of latent HIV-1 in the J89GFP cells was measured by quantifying the percentage of EGFP positive cells using a BD FACScan flow cytometer with BD FACSDiva software (BD Biosciences, CA), as described previously. Reactivation of latent HIV-1 in the ACH-2 and U 1 cells was assessed by quantitative analysis of initiated and elongated HIV-1 transcripts, as described previously. All 3 cell lines were maintained in RMPI 1640 medium supplemented with 10% FBS, 0.3 mg/mL L-glutamine, 100 U/mL penicillin, and 100 µg/mL streptomycin at 37°C in humidified air with 5% CO2.
# To identify novel activators of latent HIV-1 expression, we screened 640 pure natural products from the TimTec Natural Compound Library at a concentration of 10 ng/mL for 24 hrs in a Jurkat cell (J89GFP) model of latency for their cytotoxicity and ability to reactivate HIV-1 expression. J89GFP cells contain a stably integrated, full-length HIV-1 provirus with an enhanced GFP (EGFP) reporter incorporated into the viral genome. The viral genome in these cells is transcriptionally silent. However, upon stimulation viral transcription is activated and viral expression can be measured by EGFP production. […].
# [2] = test system: latent HIV-1 in ACH2 and U1 cell lines; assay: Latent HIV-1 reactivation, range across cell lines of virus latency; type: cell-based; details: Human immunodeficiency virus 1, ACH-2, read-out: EC50, reactivation of latent HIV-1 gene expression
# [3] = Cytotoxicity (MTT or CellTiter 96), Jurkat; type: cell-based; details: human, Jurkat cells; 24 hour incubation; mean ± SD, 3 replicates
# Experimental: (§1) Following a 24 hour incubation period, cell viability was measured using either the MTT (Roche Applied Science, Indianapolis, IN) or CellTiter 96 proliferation (Promega, WI) assay.
# [4] = Cytotoxicity (MTT or CellTiter 96), 293T; type: cell-based; details: human, 293T cells; 24 hour incubation; mean ± SD, 3 replicates
# Experimental: as §1
# [5] = Cytotoxicity (MTT or CellTiter 96), CD8+-depleted MNC; type: cell-based; details: human, CD8+-depleted mononuclear cells (MNC) from whole blood; 24 hour incubation; mean of 2 replicates
# Experimental: as §1
# CD8+T-cells were depleted from whole blood using RosetteSep Human CD8 Depletion Cocktail (StemCell Technologies, Vancouver, BC) according to manufacturer's instructions. 2×10^6 CD4^+ MNC cells were seeded in triplicate per treatment in 48-well plates and allowed to rest overnight. All wells were maintained in 81 nM efavirenz. […] Activation controls were treated with CD3/CD28 Dynabeads (Life Technologies, Grand Island, NY). After 7 days of incubation, supernatants from triplicate wells were pooled, centrifuged (500 g×5 min), and stored at −80°C. HIV-1 RNA levels in supernatants were determined using the COBAS® AmpliPrep/COBAS® TaqMan® HIV-1 Test, v2.0 (Roche, Indianapolis, IN).
# [6] = test system: purified T cells; assay: Global T cell activation (surface expression of CD69, CD38 and HLA-DR); type: cell-based; details: different concentrations, up to 5 days
# From the text: Peripheral blood MNC were obtained from the blood of healthy donors by Ficoll-Paque PLUS (GE Healthcare, Piscataway, NJ) density gradient centrifugation. T cells were isolated using the Pan T Cell Isolation kit (Miltenyi Biotec, Auburn, CA) according to manufacturer's instruction. Briefly, non-T cells were depleted from the MNC using biotin-conjugated antibodies to CD14, CD15, CD16, CD19, CD34, CD36, CD56, CD123, and CD235a and anti-biotin-labeled magnetic beads. […] Cells were then washed twice with PBS, resuspended in PBS with 4% PFA and stored in the refrigerator until analysis. Samples were analyzed on a BD LSRII flow cytometer and analyzed using FACsDiva software (BD Biosciences, Mountain View, CA). Forward versus side scatter plot was used to define the live cell population and fluorescence gates were set based on isotype control fluorescence.
# [7] = test system: PI3K p110α RNA; assay: PI3K isoform RNA transcript levels in J89GFP cells, p110α; type: cell-based; details: 5 µM
# [8] = test system: PI3K p110δ RNA; assay: PI3K isoform RNA transcript levels in J89GFP cells, p110δ; type: cell-based; details: 5 µM
# [9] = test system: T1, PI3K p110α; assay: PI3K activity assay (PIP3 production, Millipore kit) in combination with wortmannin, p110α; type: biochemical; details: recombinant purified enzyme; 100 nM wortmannin + 5 µM compound
# T1 construct: purchased Millipore (Billerica, MA)
# Experimental: The production of phosphatidylinositol (3,4,5)-triphosphate (PIP3) by the four class I PI3K isoenzymes (p110 α, β, γ, δ) was assessed using the PI3 Kinase Activity/Inhibitor Assay Kit (Millipore, Billerica, MA) according to the manufacturer's instructions. This assay works on the principle that the PH domain of the protein GRP-1 binds PIP3 with high affinity and specificity. This protein binds to the glutathione plate and captures either the PIP3 generated as part of the kinase reaction or the biotinylated-PIP3 tracer included in the kit. The captured biotinylated-PIP3 is detected using streptavidin-HRP conjugate and a colorimetric read out (OD 450).
# The class I PI3Ks are heterodimeric enzymes formed by association of a p110 catalytic subunit with a p85 regulatory subunit. There are 4 variants of the p110 catalytic subunit designated p110α, β, δ or γ [22]. […] Briefly, in this assay the PIP3 generated as part of the kinase reaction or the biotinylated-PIP3 tracer included in the kit is captured on a glutathione plate via its interaction with the pleckstrin homology (PH) domain of the glutathione S-transferase (GST)-fusion protein general receptor for phosphoinositides-1 (GRP-1). The captured biotinylated-PIP3 is then detected using a streptavidin-HRP conjugate and a colorimetric read out.
# [10] = biological target: T2, HDAC8 (Homo sapiens, UniProt Q9BY41); assay: Fluorogenic HDAC activity assay, HDAC8; type: biochemical
# T2 construct: purchased BPS Bioscience (San Diego, CA)
# T2 sequence (Q9BY41 1-377): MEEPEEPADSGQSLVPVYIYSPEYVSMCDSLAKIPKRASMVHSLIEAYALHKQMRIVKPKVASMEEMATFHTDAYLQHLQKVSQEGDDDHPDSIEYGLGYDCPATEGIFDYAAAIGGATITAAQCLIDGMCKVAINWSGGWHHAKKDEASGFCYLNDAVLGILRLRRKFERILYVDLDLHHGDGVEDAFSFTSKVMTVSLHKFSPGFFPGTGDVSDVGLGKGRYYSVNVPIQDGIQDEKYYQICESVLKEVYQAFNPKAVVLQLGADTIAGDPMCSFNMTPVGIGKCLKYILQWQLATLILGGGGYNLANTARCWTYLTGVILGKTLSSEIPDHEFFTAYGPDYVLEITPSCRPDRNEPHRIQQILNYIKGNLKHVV
# Experimental: The lysine deacetylase activity of HDACs 1, 2, 3, and 8 was assessed using the Fluorogenic HDAC Assay (BPS Bioscience, San Diego, CA) according to the manufacturer's instructions. […] All assays were carried out under steady-state conditions and the assay read-out was optimized for linearity both as a function of time and enzyme concentration. The formation of the fluorescent product was measured using a SpectraMax M2 Plate Reader (Molecular Devices, CA). The excitation and emission wavelengths were 360 nm and 450 nm, respectively.
structure (smiles),measurement,setting,value
"COc1cc2c(cc1OC)-c1c(OC)c(OC)cc3ccnc(c13)C2=O [Compound 57704, 1,2,9,10-tetramethoxy-7H-dibenzo[de,g]quinolin-7-one]",EC50,"[1]; Human immunodeficiency virus 1, read-out: EC50, reactivation of latent HIV-1 gene expression",10.3 ± 1.2 µM
same,Latent HIV-1 reactivation activity in presence of PI3K inhibitor wortmannin,"[1]; J89GFP, 20 nM wortmannin",significantly attenuated
same,Latent HIV-1 reactivation activity in presence of p38 MAPK inhibitor SB203580,"[1]; J89GFP, 50 nM SB203580",unaffected
same,Latent HIV-1 reactivation activity in presence of Akt Inhibitor IV,"[1]; J89GFP, 500 nM Akt Inhibitor IV",significantly attenuated
same,Latent HIV-1 reactivation activity in presence of PKC inhibitor Gö6983,"[1]; J89GFP, 500 nM Go6983",unaffected
same,Latent HIV-1 reactivation activity in presence of JNK inhibitor SP600125,"[1]; J89GFP, 1 µM SP00125",unaffected
same,Latent HIV-1 reactivation activity in presence of NFAT/calcineurin inhibitor cyclosporin A,"[1]; J89GFP, 1 µM cyclosporin A",unaffected
same,Latent HIV-1 reactivation activity in presence of PI3K p110γ inhibitor AS-605240,"[1]; J89GFP, 2 µM AS-605240",moderately enhanced
same,Latent HIV-1 reactivation activity in presence of PI3K p110α specific inhibitor PI-103,"[1]; J89GFP, 2 µM PI-103",significantly attenuated
same,Latent HIV-1 reactivation activity in presence of PI3K p110β inhibitor TGX-221,"[1]; J89GFP, 2 µM TGX-221",moderately enhanced
same,Latent HIV-1 reactivation activity in presence of PI3K p110δ inhibitor IC87114,"[1]; J89GFP, 5 µM IC87114",not reduced
same,Latent HIV-1 reactivation activity in presence of pan PI3K inhibitor LY 294002,"[1]; J89GFP, 15 µM LY294002",significantly attenuated
same,Latent HIV-1 reactivation activity in presence of NF-κB inhibitor 6-amino-4-(4-phenoxyphenylethylamino) quinazoline,"[1]; J89GFP, 20 µM NF-κB activation inhibitor",significantly attenuated
same,EC50,[2],5 to 9 µM
same,CC50 at 24 h,[3],92.9 ± 7.5 µM
same,CC50 at 24 h,[4],106 ± 31.4 µM
same,CC50 at 24 h,[5],80 µM
same,"Surface expression of CD69, CD38 and HLA-DR",[6],did not up-regulate
same,Effect on PI3K p110α RNA transcript levels,[7],no effect
same,Effect on PI3K p110δ RNA transcript levels / gene expression,[8],no effect
same,Agonist activity: effect on inhibition of PI3K p110α by wortmannin,[9],abrogated the ability of wortmannin to inhibit PI3K p110α
same,IC50,[10],> 50 µM
